Values quoted from earlier work in patent publication US20250345315A1, “Dispenseable formulation for active pharmaceutical ingredients” (CurifyLabs Oy, priority 2024, published 2025).
Where a name gives a salt, the structure may show the parent alone.

Conditions: permeability/solubility class per ICH M9 guideline

Class, I:
CC(=O)Oc1ccccc1C(=O)O [Acetylsalicylic acid]
CC(C)NCC(O)COc1ccc(COCCOC(C)C)cc1 (centres unmarked) [Bisoprolol fumarate]
CC(=O)Nc1ccc(O)cc1 [Paracetamol]
C[C@]12C=CC(=O)C=C1CC[C@@H]1[C@@H]2[C@@H](O)C[C@@]2(C)[C@H]1CC[C@]2(O)C(=O)CO [Prednisolone]
CC(C)NCC(O)COc1cccc2ccccc12 (centres unmarked) [Propranolol HCl]
